Data: patent publication US20150210796A1, “Novel Compound, Novel Polymer, Colorant Including the Same, Positive Photosensitive Resin Composition Including the Same, and Color Filter” (Samsung SDI Co., Ltd., priority 2014, published 2015)

Test: Solubility: dissolution state of compound in dilution solvent
Assay type: physicochemical
Settings: agitated at 25° C. and 100 rpm for 1 hour; for Amount of dissolved compound, diluted solvent (Anone): 0.5 g compound added to Anone (cyclohexanone); for Amount of dissolved compound, diluted solvent (PGMEA): 0.5 g compound added to PGMEA
Protocol: 0.5 g of each compound represented by Chemical Formulae 3-1 and 7-1 is respectively added to a dilution solvent (PGMEA, Anone, MeOH) to prepare each solution, the solution is agitated at 25° C. and 100 rpm for 1 hour with a mix rotor (MIXROTAR VMR-5, Luchi Deiseido Co., Ltd.) to examine dissolution state of the compound (the content of the dissolved compound), and the results are provided in the following Table 1. (Anone indicates cyclohexanone)

| Amount of dissolved compound, diluted solvent (Anone) | Amount of dissolved compound, diluted solvent (PGMEA) | Amount of dissolved compound, diluted solvent (MeOH) (0.5 g compound added to MeOH) | Structure (SMILES) |
| --- | --- | --- | --- |
| equal to 0.1 wt % | to 0.1 wt % | – | C=C(C)C(=O)OCCNS(=O)(=O)c1ccc(-c2c3ccc(=[N+](CC)CC)cc-3oc3cc(N(CC)CC)ccc23)c(S(=O)(=O)[O-])c1 [Chemical Formula 3-1] |
| 3.0 wt % | 0.1 wt % | equal to 10.0 wt % | C=C(C)C(=O)OCCN(CCCCCCCCCCCCCCCC)S(=O)(=O)c1ccc(-c2c3ccc(=[N+](CC)CC)cc-3oc3cc(N(CC)CC)ccc23)c(S(=O)(=O)[O-])c1 [Chemical Formula 7-1] |
